Measured values reported in ChEMBL document CHEMBL2396621, “Design, synthesis and biological evaluation of 2-mercapto-3-phenethylquinazoline bearing anilide fragments as potential antitumor agents: molecular docking study” (2013).

Assays:
Format in all cases: functional
[1] = system: NCI-H23; experiment: Cytotoxicity against human NCI-H23 cells assessed as growth inhibition at 10 uM after 48 hrs by coulter counter analysis; details: NCI-H23, 48 h, read-out: GI
[2] = system: Hs-578T; experiment: Cytotoxicity against human Hs578T cells assessed as growth inhibition at 10 uM after 48 hrs by coulter counter analysis; details: read-out: GI
[3] = system: MDA-MB-231; experiment: Cytotoxicity against human MDA-MB-231 cells assessed as growth inhibition at 10 uM after 48 hrs by coulter counter analysis; details: MDA-MB-231, 48 h, read-out: GI
[4] = system: PC-3; experiment: Cytotoxicity against human PC3 cells assessed as growth inhibition at 10 uM after 48 hrs by coulter counter analysis; details: PC-3, 48 h, read-out: GI
[5] = system: UO-31; experiment: Cytotoxicity against human UO31 cells assessed as growth inhibition at 10 uM after 48 hrs by coulter counter analysis; details: UO-31, 48 h, read-out: GI
[6] = system: TK-10; experiment: Cytotoxicity against human TK10 cells assessed as growth inhibition at 10 uM after 48 hrs by coulter counter analysis; details: TK-10, 48 h, read-out: GI
[7] = system: RXF 393; experiment: Cytotoxicity against human RXF393 cells assessed as growth inhibition at 10 uM after 48 hrs by coulter counter analysis; details: RXF 393, 48 h, read-out: GI
[8] = system: CAKI-1; experiment: Cytotoxicity against human Caki1 cells assessed as growth inhibition at 10 uM after 48 hrs by coulter counter analysis; details: CAKI-1, 48 h, read-out: GI
[9] = system: ACHN; experiment: Cytotoxicity against human ACHN cells assessed as growth inhibition at 10 uM after 48 hrs by coulter counter analysis; details: read-out: GI
[10] = system: A498; experiment: Cytotoxicity against human A498 cells assessed as growth inhibition at 10 uM after 48 hrs by coulter counter analysis; details: A498, 48 h, read-out: GI
[11] = system: SK-OV-3; experiment: Cytotoxicity against human SKOV3 cells assessed as growth inhibition at 10 uM after 48 hrs by coulter counter analysis; details: SK-OV-3, 48 h, read-out: GI
[12] = system: 786-0; experiment: Cytotoxicity against human 786-0 cells assessed as growth inhibition at 10 uM after 48 hrs by coulter counter analysis; details: 786-0, 48 h, read-out: GI
[13] = Cytotoxicity against human NCI-ADR-RES cells assessed as growth inhibition at 10 uM after 48 hrs by coulter counter analysis; details: read-out: GI
[14] = system: OVCAR-5; experiment: Cytotoxicity against human OVCAR5 cells assessed as growth inhibition at 10 uM after 48 hrs by coulter counter analysis; details: OVCAR-5, 48 h, read-out: GI
[15] = system: OVCAR-4; experiment: Cytotoxicity against human OVCAR4 cells assessed as growth inhibition at 10 uM after 48 hrs by coulter counter analysis; details: OVCAR-4, 48 h, read-out: GI
[16] = system: IGROV-1; experiment: Cytotoxicity against human IGROV1 cells assessed as growth inhibition at 10 uM after 48 hrs by coulter counter analysis; details: IGROV-1, 48 h, read-out: GI
[17] = system: UACC-62; experiment: Cytotoxicity against human UACC62 cells assessed as growth inhibition at 10 uM after 48 hrs by coulter counter analysis; details: UACC-62, 48 h, read-out: GI
[18] = system: UACC-257; experiment: Cytotoxicity against human UACC257 cells assessed as growth inhibition at 10 uM after 48 hrs by coulter counter analysis; details: UACC-257, 48 h, read-out: GI
[19] = system: MDA-MB-435; experiment: Cytotoxicity against human MDA-MB-435 cells assessed as growth inhibition at 10 uM after 48 hrs by coulter counter analysis; details: MDA-MB-435, 48 h, read-out: GI
[20] = system: M14; experiment: Cytotoxicity against human M14 cells assessed as growth inhibition at 10 uM after 48 hrs by coulter counter analysis; details: M14, 48 h, read-out: GI
[21] = system: Malme-3M; experiment: Cytotoxicity against human MALME-3M cells assessed as growth inhibition at 10 uM after 48 hrs by coulter counter analysis; details: read-out: GI
[22] = system: LOX IMVI; experiment: Cytotoxicity against human LOXIMVI cells assessed as growth inhibition at 10 uM after 48 hrs by coulter counter analysis; details: read-out: GI
[23] = system: SF-539; experiment: Cytotoxicity against human SF539 cells assessed as growth inhibition at 10 uM after 48 hrs by coulter counter analysis; details: SF-539, 48 h, read-out: GI
[24] = system: SF-295; experiment: Cytotoxicity against human SF295 cells assessed as growth inhibition at 10 uM after 48 hrs by coulter counter analysis; details: SF-295, 48 h, read-out: GI
[25] = system: SW-620; experiment: Cytotoxicity against human SW620 cells assessed as growth inhibition at 10 uM after 48 hrs by coulter counter analysis; details: SW-620, 48 h, read-out: GI
[26] = system: KM12; experiment: Cytotoxicity against human KM12 cells assessed as growth inhibition at 10 uM after 48 hrs by coulter counter analysis; details: KM12, 48 h, read-out: GI
[27] = system: HT-29; experiment: Cytotoxicity against human HT-29 cells assessed as growth inhibition at 10 uM after 48 hrs by coulter counter analysis; details: HT-29, 48 h, read-out: GI
[28] = system: HCT-15; experiment: Cytotoxicity against human HCT15 cells assessed as growth inhibition at 10 uM after 48 hrs by coulter counter analysis; details: HCT-15, 48 h, read-out: GI
[29] = system: HCC 2998; experiment: Cytotoxicity against human HCC2998 cells assessed as growth inhibition at 10 uM after 48 hrs by coulter counter analysis; details: HCC 2998, 48 h, read-out: GI
[30] = system: COLO 205; experiment: Cytotoxicity against human COLO205 cells assessed as growth inhibition at 10 uM after 48 hrs by coulter counter analysis; details: COLO 205, 48 h, read-out: GI
[31] = system: NCI-H522; experiment: Cytotoxicity against human NCI-H522 cells assessed as growth inhibition at 10 uM after 48 hrs by coulter counter analysis; details: NCI-H522, 48 h, read-out: GI
[32] = system: NCI-H460; experiment: Cytotoxicity against human NCI-H460 cells assessed as growth inhibition at 10 uM after 48 hrs by coulter counter analysis; details: NCI-H460, 48 h, read-out: GI
[33] = system: NCI-H226; experiment: Cytotoxicity against human NCI-H226 cells assessed as growth inhibition at 10 uM after 48 hrs by coulter counter analysis; details: NCI-H226, 48 h, read-out: GI
[34] = system: HOP-62; experiment: Cytotoxicity against human HOP62 cells assessed as growth inhibition at 10 uM after 48 hrs by coulter counter analysis; details: HOP-62, 48 h, read-out: GI
[35] = Cytotoxicity against human EKVX cells assessed as growth inhibition at 10 uM after 48 hrs by coulter counter analysis; details: read-out: GI
[36] = system: DU-145; experiment: Cytotoxicity against human DU145 cells assessed as growth inhibition at 10 uM after 48 hrs by coulter counter analysis; details: DU-145, 48 h, read-out: GI
[37] = system: U-251; experiment: Cytotoxicity against human U251 cells assessed as growth inhibition at 10 uM after 48 hrs by coulter counter analysis; details: U-251, 48 h, read-out: GI

Structure (SMILES)	inhibition of growth at 10 µM [1] [%]	inhibition of growth at 10 µM [2] [%]	inhibition of growth at 10 µM [3] [%]	inhibition of growth at 10 µM [4] [%]	inhibition of growth at 10 µM [5] [%]	inhibition of growth at 10 µM [6] [%]	inhibition of growth at 10 µM [7] [%]	inhibition of growth at 10 µM [9] [%]	inhibition of growth at 10 µM [10] [%]	inhibition of growth at 10 µM [11] [%]	inhibition of growth at 10 µM [12] [%]	inhibition of growth at 10 µM [13] [%]	inhibition of growth at 10 µM [14] [%]	inhibition of growth at 10 µM [15] [%]	inhibition of growth at 10 µM [16] [%]	inhibition of growth at 10 µM [17] [%]	inhibition of growth at 10 µM [18] [%]	inhibition of growth at 10 µM [19] [%]	inhibition of growth at 10 µM [20] [%]	inhibition of growth at 10 µM [21] [%]	further results
O=C(CSc1nc2ccccc2c(=O)n1CCc1ccccc1)Oc1ccccc1	14	< 10	15	14	16	< 10	< 10	10	18	28	13	22	< 10	59	10	19	11	19	13	16	inhibition of growth at 10 µM [8]: < 10%; inhibition of growth at 10 µM [22]: 16%; inhibition of growth at 10 µM [23]: < 10%; inhibition of growth at 10 µM [24]: 20%; inhibition of growth at 10 µM [25]: < 10%; inhibition of growth at 10 µM [26]: < 10%; inhibition of growth at 10 µM [27]: < 10%; inhibition of growth at 10 µM [28]: < 10%; inhibition of growth at 10 µM [29]: < 10%; inhibition of growth at 10 µM [30]: < 10%; inhibition of growth at 10 µM [31]: 37%; inhibition of growth at 10 µM [32]: 14%
COc1cc(NC(=O)CSc2nc3ccccc3c(=O)n2CCc2ccccc2)cc(OC)c1OC	74	64	> 100	59	> 100	> 100	55	> 100	> 100	> 100	> 100	64	35	47	92	25	61	> 100	68	59	inhibition of growth at 10 µM [33]: > 100%; inhibition of growth at 10 µM [34]: 91%; inhibition of growth at 10 µM [35]: 35%; inhibition of growth at 10 µM [36]: 55%; inhibition of growth at 10 µM [22]: 70%; inhibition of growth at 10 µM [37]: > 100%; inhibition of growth at 10 µM [23]: > 100%; inhibition of growth at 10 µM [24]: 49%; inhibition of growth at 10 µM [25]: 52%; inhibition of growth at 10 µM [26]: 93%; inhibition of growth at 10 µM [27]: 85%; inhibition of growth at 10 µM [28]: 11%; inhibition of growth at 10 µM [29]: 66%; inhibition of growth at 10 µM [30]: 71%; inhibition of growth at 10 µM [31]: > 100%; inhibition of growth at 10 µM [32]: > 100%
O=C(CSc1nc2ccccc2c(=O)n1CCc1ccccc1)Nc1ccccc1C(=O)O	26	45	45	< 10	< 10	19	25	34	26	53	16	34	< 10	23	42	21	35	35	12	18	inhibition of growth at 10 µM [33]: 26%; inhibition of growth at 10 µM [34]: 49%; inhibition of growth at 10 µM [35]: 25%; inhibition of growth at 10 µM [36]: 30%; inhibition of growth at 10 µM [8]: < 10%; inhibition of growth at 10 µM [22]: 38%; inhibition of growth at 10 µM [23]: 44%; inhibition of growth at 10 µM [24]: 18%; inhibition of growth at 10 µM [25]: 21%; inhibition of growth at 10 µM [26]: 10%; inhibition of growth at 10 µM [27]: 11%; inhibition of growth at 10 µM [28]: 12%; inhibition of growth at 10 µM [29]: < 10%; inhibition of growth at 10 µM [30]: 35%; inhibition of growth at 10 µM [31]: 85%; inhibition of growth at 10 µM [32]: 41%
